{"source": "ChEMBL document CHEMBL1201862", "about": "“PubChem BioAssay data set” (2004)", "test_in_all_cases": "NCI anticancer screen, dose series, 48 h", "key": {"[1]": {"test_system": "786-0"}, "[2]": {"test_system": "A549"}, "[3]": {"test_system": "ACHN"}, "[4]": {"test_system": "CAKI-1"}, "[5]": {"test_system": "CCRF-CEM"}, "[6]": {"test_system": "COLO 205"}, "[7]": {"test_system": "DMS-114"}, "[8]": {"test_system": "DMS-273"}, "[9]": {"test_system": "EKVX"}, "[10]": {"test_system": "HCC 2998"}, "[11]": {"test_system": "HCT-116"}, "[12]": {"test_system": "HCT-15"}, "[13]": {"test_system": "HOP-18"}, "[14]": {"test_system": "HOP-92"}, "[15]": {"test_system": "IGROV-1"}, "[16]": {"test_system": "K562"}, "[17]": {"test_system": "KM-20L2"}, "[18]": {"test_system": "KM12"}, "[19]": {"test_system": "LXFL 529"}, "[20]": {"test_system": "M14"}, "[21]": {"test_system": "M19-MEL"}, "[22]": {"test_system": "MOLT-4"}, "[23]": {"test_system": "Malme-3M"}, "[24]": {"test_system": "NCI-H226"}, "[25]": {"test_system": "NCI-H23"}, "[26]": {"test_system": "NCI-H522"}, "[27]": {"test_system": "OVCAR-4"}, "[28]": {"test_system": "OVCAR-5"}, "[29]": {"test_system": "OVCAR-8"}, "[30]": {"test_system": "RPMI-8226"}, "[31]": {"test_system": "RXF 393"}, "[32]": {"test_system": "RXF 631"}, "[33]": {"test_system": "SF-268"}, "[34]": {"test_system": "SF-295"}, "[35]": {"test_system": "SF-539"}, "[36]": {"test_system": "SK-MEL-28"}, "[37]": {"test_system": "SK-MEL-2"}, "[38]": {"test_system": "SK-MEL-5"}, "[39]": {"test_system": "SN12C"}, "[40]": {"test_system": "SNB-19"}, "[41]": {"test_system": "SNB-78"}, "[42]": {"test_system": "SR"}, "[43]": {"test_system": "SW-620"}, "[44]": {"test_system": "TK-10"}, "[45]": {"test_system": "U-251"}, "[46]": {"test_system": "UACC-257"}, "[47]": {"test_system": "UACC-62"}, "[48]": {"test_system": "UO-31"}, "[49]": {"test_system": "XF498"}, "[50]": {"test_system": "A498"}, "[51]": {"test_system": "DLD-1"}, "[52]": {"test_system": "HOP-62"}, "[53]": {"test_system": "HT-29"}, "[54]": {"test_system": "LOX IMVI"}, "[55]": {"test_system": "NCI-H460"}, "[56]": {"test_system": "OVCAR-3"}, "[57]": {"test_system": "SK-OV-3"}, "[58]": {"test_system": "SNB-75"}}, "note": "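Method: 48-hour compound exposure of cells in 96-well plates, five concentrations, linear interpolation of endpoints. Here, GI50 denotes the concentration required for 50% inhibition of growth.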 Activity calls are given as the source filed them. Cut-off read from the data, not from the text of the source: active = GI50 up to about 1.1 µM and inactive = higher.", "data": [{"compound": "COC(=O)/C(=N\\NC(=S)NN)C(C(=O)C(=O)Nc1ccccc1C(N)=O)c1nc2ccccc2nc1O", "note": "(centres undefined)", "values": [{"measurement": "GI50", "setting": "[1]", "value": "> 100 µM (inactive)"}, {"measurement": "GI50", "setting": "[2]", "value": "> 100 µM (inactive)"}, {"measurement": "GI50", "setting": "[3]", "value": "> 100 µM (inactive)"}, {"measurement": "GI50", "setting": "[4]", "value": "> 100 µM (inactive)"}, {"measurement": "GI50", "setting": "[5]", "value": "> 100 µM (inactive)"}, {"measurement": "GI50", "setting": "[6]", "value": "> 100 µM (inactive)"}, {"measurement": "GI50", "setting": "[7]", "value": "> 100 µM (inactive)"}, {"measurement": "GI50", "setting": "[8]", "value": "> 100 µM (inactive)"}, {"measurement": "GI50", "setting": "[9]", "value": "> 100 µM (inactive)"}, {"measurement": "GI50", "setting": "[10]", "value": "> 100 µM (inactive)"}, {"measurement": "GI50", "setting": "[11]", "value": "> 100 µM (inactive)"}, {"measurement": "GI50", "setting": "[12]", "value": "> 100", "unit": "µM"}, {"measurement": "GI50", "setting": "[13]", "value": "> 100 µM (inactive)"}, {"measurement": "GI50", "setting": "[14]", "value": "43.5 µM (inactive)"}, {"measurement": "GI50", "setting": "[15]", "value": "> 100 µM (inactive)"}, {"measurement": "GI50", "setting": "[16]", "value": "> 100 µM (inactive)"}, {"measurement": "GI50", "setting": "[17]", "value": "> 100 µM (inactive)"}, {"measurement": "GI50", "setting": "[18]", "value": "> 100 µM (inactive)"}, {"measurement": "GI50", "setting": "[19]", "value": "> 100 µM (inactive)"}, {"measurement": "GI50", "setting": "[20]", "value": "> 100 µM (inactive)"}, {"measurement": "GI50", "setting": "[21]", "value": "> 100 µM (inactive)"}, {"measurement": "GI50", "setting": "[22]", "value": "> 100 µM (inactive)"}, {"measurement": "GI50", "setting": "[23]", "value": "> 100 µM (inactive)"}, {"measurement": "GI50", "setting": "[24]", "value": "> 100 µM (inactive)"}, {"measurement": "GI50", "setting": "[25]", "value": "7.69 µM (inactive)"}, {"measurement": "GI50", "setting": "[26]", "value": "> 100 µM (inactive)"}, {"measurement": "GI50", "setting": "[27]", "value": "> 100 µM (inactive)"}, {"measurement": "GI50", "setting": "[28]", "value": "> 100 µM (inactive)"}, {"measurement": "GI50", "setting": "[29]", "value": "> 100 µM (inactive)"}, {"measurement": "GI50", "setting": "[30]", "value": "> 100 µM (inactive)"}, {"measurement": "GI50", "setting": "[31]", "value": "> 100 µM (inactive)"}, {"measurement": "GI50", "setting": "[32]", "value": "> 100 µM (inactive)"}, {"measurement": "GI50", "setting": "[33]", "value": "> 100 µM (inactive)"}, {"measurement": "GI50", "setting": "[34]", "value": "> 100 µM (inactive)"}, {"measurement": "GI50", "setting": "[35]", "value": "> 100 µM (inactive)"}, {"measurement": "GI50", "setting": "[36]", "value": "> 100 µM (inactive)"}, {"measurement": "GI50", "setting": "[37]", "value": "> 100 µM (inactive)"}, {"measurement": "GI50", "setting": "[38]", "value": "> 100 µM (inactive)"}, {"measurement": "GI50", "setting": "[39]", "value": "> 100 µM (inactive)"}, {"measurement": "GI50", "setting": "[40]", "value": "> 100 µM (inactive)"}, {"measurement": "GI50", "setting": "[41]", "value": "> 100 µM (inactive)"}, {"measurement": "GI50", "setting": "[42]", "value": "> 100 µM (inactive)"}, {"measurement": "GI50", "setting": "[43]", "value": "> 100 µM (inactive)"}, {"measurement": "GI50", "setting": "[44]", "value": "> 100 µM (inactive)"}, {"measurement": "GI50", "setting": "[45]", "value": "> 100 µM (inactive)"}, {"measurement": "GI50", "setting": "[46]", "value": "> 100 µM (inactive)"}, {"measurement": "GI50", "setting": "[47]", "value": "> 100 µM (inactive)"}, {"measurement": "GI50", "setting": "[48]", "value": "> 100 µM (inactive)"}, {"measurement": "GI50", "setting": "[49]", "value": "> 100 µM (inactive)"}]}, {"compound": "Cc1cc(C)nc(Sc2c([N+](=O)[O-])ncn2C)n1", "values": [{"measurement": "GI50", "setting": "[1]", "value": "> 100 µM (inactive)"}, {"measurement": "GI50", "setting": "[50]", "value": "> 100 µM (inactive)"}, {"measurement": "GI50", "setting": "[2]", "value": "> 100 µM (inactive)"}, {"measurement": "GI50", "setting": "[3]", "value": "> 100 µM (inactive)"}, {"measurement": "GI50", "setting": "[4]", "value": "> 100 µM (inactive)"}, {"measurement": "GI50", "setting": "[5]", "value": "56.9 µM (inactive)"}, {"measurement": "GI50", "setting": "[6]", "value": "> 100 µM (inactive)"}, {"measurement": "GI50", "setting": "[51]", "value": "> 100 µM (inactive)"}, {"measurement": "GI50", "setting": "[7]", "value": "> 100 µM (inactive)"}, {"measurement": "GI50", "setting": "[8]", "value": "> 100 µM (inactive)"}, {"measurement": "GI50", "setting": "[9]", "value": "> 100 µM (inactive)"}, {"measurement": "GI50", "setting": "[10]", "value": "> 100 µM (inactive)"}, {"measurement": "GI50", "setting": "[11]", "value": "> 100 µM (inactive)"}, {"measurement": "GI50", "setting": "[13]", "value": "20.6 µM (inactive)"}, {"measurement": "GI50", "setting": "[52]", "value": "> 100 µM (inactive)"}, {"measurement": "GI50", "setting": "[14]", "value": "> 100 µM (inactive)"}, {"measurement": "GI50", "setting": "[53]", "value": "> 100 µM (inactive)"}, {"measurement": "GI50", "setting": "[15]", "value": "> 100 µM (inactive)"}, {"measurement": "GI50", "setting": "[16]", "value": "> 100 µM (inactive)"}, {"measurement": "GI50", "setting": "[18]", "value": "> 100 µM (inactive)"}, {"measurement": "GI50", "setting": "[54]", "value": "57.1 µM (inactive)"}, {"measurement": "GI50", "setting": "[19]", "value": "99.8 µM (inactive)"}, {"measurement": "GI50", "setting": "[20]", "value": "> 100 µM (inactive)"}, {"measurement": "GI50", "setting": "[21]", "value": "> 100 µM (inactive)"}, {"measurement": "GI50", "setting": "[22]", "value": "69.5 µM (inactive)"}, {"measurement": "GI50", "setting": "[23]", "value": "94.6 µM (inactive)"}, {"measurement": "GI50", "setting": "[24]", "value": "> 100 µM (inactive)"}, {"measurement": "GI50", "setting": "[25]", "value": "> 100 µM (inactive)"}, {"measurement": "GI50", "setting": "[55]", "value": "> 100 µM (inactive)"}, {"measurement": "GI50", "setting": "[26]", "value": "> 100 µM (inactive)"}, {"measurement": "GI50", "setting": "[56]", "value": "> 100 µM (inactive)"}, {"measurement": "GI50", "setting": "[27]", "value": "> 100 µM (inactive)"}, {"measurement": "GI50", "setting": "[28]", "value": "> 100 µM (inactive)"}, {"measurement": "GI50", "setting": "[29]", "value": "> 100 µM (inactive)"}, {"measurement": "GI50", "setting": "[30]", "value": "> 100 µM (inactive)"}, {"measurement": "GI50", "setting": "[32]", "value": "> 100 µM (inactive)"}, {"measurement": "GI50", "setting": "[33]", "value": "> 100 µM (inactive)"}, {"measurement": "GI50", "setting": "[34]", "value": "> 100 µM (inactive)"}, {"measurement": "GI50", "setting": "[35]", "value": "> 100 µM (inactive)"}, {"measurement": "GI50", "setting": "[36]", "value": "> 100 µM (inactive)"}, {"measurement": "GI50", "setting": "[37]", "value": "> 100 µM (inactive)"}, {"measurement": "GI50", "setting": "[38]", "value": "> 100 µM (inactive)"}, {"measurement": "GI50", "setting": "[57]", "value": "> 100 µM (inactive)"}, {"measurement": "GI50", "setting": "[39]", "value": "> 100 µM (inactive)"}, {"measurement": "GI50", "setting": "[40]", "value": "> 100 µM (inactive)"}, {"measurement": "GI50", "setting": "[58]", "value": "> 100 µM (inactive)"}, {"measurement": "GI50", "setting": "[41]", "value": "> 100 µM (inactive)"}, {"measurement": "GI50", "setting": "[42]", "value": "> 100 µM (inactive)"}, {"measurement": "GI50", "setting": "[43]", "value": "> 100 µM (inactive)"}, {"measurement": "GI50", "setting": "[44]", "value": "> 100 µM (inactive)"}, {"measurement": "GI50", "setting": "[45]", "value": "> 100 µM (inactive)"}, {"measurement": "GI50", "setting": "[46]", "value": "> 100 µM (inactive)"}, {"measurement": "GI50", "setting": "[47]", "value": "> 100 µM (inactive)"}, {"measurement": "GI50", "setting": "[48]", "value": "> 100 µM (inactive)"}, {"measurement": "GI50", "setting": "[49]", "value": "> 100 µM (inactive)"}]}]}
